According to patent EP4755891A1, “ARF1 INHIBITOR AND USE THEREOF” (AOBIO PHARMACEUTICAL CO., LTD., priority 2023, dated 2025):
Entries after “also recorded” stand apart in the source; their conditions may differ. Like-named read-outs stand apart in the source and are kept apart here.

Key:
Arf1 = biological target: T1, Arf1 (Homo sapiens, UniProt P84077); assay: Inhibition test of Arf1 activation (Active Arf1 pull-down and detection kit, Western blot); format: cell-based; conditions: lysate of liver cancer Huh-7 cells; GTP-bound Arf1; FIG. 3
T1 construct: endogenous in cells; host or cells: Huh-7 liver cancer cells (lysate)
T1 sequence (P84077 whole entry): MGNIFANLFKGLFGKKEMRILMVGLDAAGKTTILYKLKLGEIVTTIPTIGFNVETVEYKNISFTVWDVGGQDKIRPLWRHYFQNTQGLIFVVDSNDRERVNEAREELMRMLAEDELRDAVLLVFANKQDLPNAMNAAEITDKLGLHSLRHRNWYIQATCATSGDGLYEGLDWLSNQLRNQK
Experimental: In this example, the inhibitory ability of Compounds 3 and 9 synthesized in the above preparation examples on Arf1 activation was tested. The Pierce Active Arf1 Pull-Down and Detection Kit (Thermo Scientific, Cat#16121) was used with the lysate of liver cancer Huh-7 cells to detect the activated Arf1. It is a complete kit that selectively enriches and detects GTP-bound Arf1 GTPase through specific protein interactions with the GGA3 protein-binding domain.

[1] = Pharmacokinetic study in SD rats; format: in vivo
Experimental: In this experiment, six male SD rats were divided into two groups based on similar body weight. These rats were administered Compound 9 via single intravenous injection and oral gavage, respectively. The intravenous injection dose was 2 mg/kg, while the oral gavage dose was 10 mg/kg. The vehicle for both intravenous and oral administration was a clear solution of 5% DMSO + 5% PEG400 + 90% water. The concentration for intravenous injection was 0.4 mg/mL, and for oral gavage was 1 mg/mL. K2-EDTA was used as the anticoagulant. The blood sampling time points were all at: 0.083, 0.25, 0.5, 1, 3, 6, 12, and 24 hours.
Blood samples of 0.02 mL were collected from the saphenous vein of all experimental animals, and the actual blood collection time was recorded. In this experiment, the deviation of the blood sampling time from the theoretical sampling time complied with the regulations (points within 1 hour after administration were within ±1 minute, and all others were within 5% of the theoretical time). After blood sample collection, the blood samples were immediately transferred to labeled centrifuge tubes containing K2-EDTA (0.5 M). The samples were then centrifuged (3000 g, 4°C, 15 minutes), and the plasma was collected. The plasma was transferred to a pre-cooled centrifuge tube, flash-frozen in dry ice, and stored in an ultra-low temperature freezer at -60°C or less until LC-MS/MS analysis was performed.

CT26 colon cancer = assay: Inhibition of CT26 colon cancer in BALB/c mice (Example 47, 5 mg/kg); format: in vivo; conditions: gavaged daily, two consecutive weeks
Experimental: In this example, the inhibitory effects of Compounds 9, 11-3, 25, 26, 27, and DU102 on colon cancer growth were tested.
Murine CT26 cells were inoculated into the left abdomen of 6-week-old male mice at a dose of 5×10^5 cells per mouse. Approximately 7 days later, the mice were randomly divided into two groups: the control group or the compound treatment group. They were gavaged daily with either the vehicle control (ddH2O or 5% DMSO in corn oil) or 5 mg/kg of Compounds 9, 11-3, 25, 26, or 27 (dissolved in the corresponding vehicle) for two consecutive weeks. Tumor diameters were measured every 2-3 days using a digital caliper (ULINE, Cat^# H-7352), and the tumor volume was calculated using the formula ½ × longitudinal diameter (length) × maximum transverse diameter (width). When the maximum tumor volume reached 2000 mm^3, the mice were euthanized.

SMILES: Cc1csc2ncnc(Nc3ccc4c(c3)ncn4C)c12 [Compound 9, 5-Methyl-N-(1-methyl-1H-benzo[d]imidazol-5-yl)thieno[2,3-d]pyrimidin-4-amine]
- inhibition of Arf1 activation (Arf1): effectively inhibit the activation of Arf1; also recorded: effective inhibitors
- absorption in rats ([1]; conclusion in words): rapidly absorbed
- apparent volume of distribution ([1]; conclusion in words): moderate apparent volume of distribution
- oral bioavailability ([1]; conclusion in words): high oral bioavailability
- Vd ([1]; rat, plasma, Intravenous Injection, 2 mg/kg, male SD rats, read-out: Apparent Volume of Distribution Vdss): 0.647 L/kg
- clearance ([1]; rat, plasma, Intravenous Injection, 2 mg/kg, male SD rats, read-out: Clearance Cl): 39.8 mL/min/kg
- half-life ([1]; rat, plasma, Intravenous Injection, 2 mg/kg, male SD rats, read-out: Half-Life T1/2 (converted)): 11 min
- bioavailability ([1]; rat, plasma, Oral Gavage, 10 mg/kg vs intravenous 2 mg/kg, male SD rats, read-out: Bioavailability F): 164%
- AUC(0-t) ([1]; rat, plasma, Oral Gavage, 10 mg/kg, male SD rats, read-out: Exposure AUC0-last): 6840 ng·h/mL
- half-life ([1]; rat, plasma, Oral Gavage, 10 mg/kg, male SD rats, read-out: Half-life T1/2 (converted)): 34.2 min
- Cmax ([1]; rat, plasma, Oral Gavage, 10 mg/kg, male SD rats, read-out: Maximum Concentration Cmax): 4770 ng/mL
- size of murine colon cancer (CT26 colon cancer; FIG. 9A): size of murine colon cancer inhibited
- weight of murine colon cancer (CT26 colon cancer; FIG. 9B): weight of murine colon cancer reduced significantly
- inhibition of CT26 colon cancer (CT26 colon cancer; FIG. 9 and FIG. 10): effectively inhibit CT26 colon cancer
